Assay results taken from DBAASP.
Converted amounts (≈) assume the structure as drawn.

Assays:
Test in all cases: ≥ marks a high value that may be exact or a test limit, other limits are often not marked, values filed in µg/mL are converted to µM
[1] = system: Pseudomonas aeruginosa Q12-0535
[2] = system: Acinetobacter baumannii Q13-0717
[3] = system: Enterococcus faecalis JH-2-2
[4] = system: Acinetobacter baumannii Q12-0867
[5] = system: Staphylococcus aureus RN4220
[6] = system: Acinetobacter baumannii Q12-0809
[7] = system: Klebsiella pneumoniae NCTC 13442
[8] = system: Pseudomonas aeruginosa Q14-0208
Escherichia coli K-12 = system: Escherichia coli K-12
[9] = system: Klebsiella pneumoniae ATCC 700603
Campylobacter jejuni = system: Campylobacter jejuni
[10] = system: Pseudomonas aeruginosa ATCC 27853
Escherichia coli = system: Escherichia coli
[11] = system: Staphylococcus aureus Q14-0320
[12] = system: Staphylococcus aureus MRSA-15
[13] = system: Staphylococcus aureus ATCC 29213
[14] = system: Listeria monocytogenes NCTC 11994
[15] = system: Pseudomonas aeruginosa Q14-0890
[16] = system: Campylobacter jejuni NCTC 11351
[17] = system: Klebsiella pneumoniae Q14-0095
[18] = system: Salmonella typhimurium SL1344
[19] = system: Pseudomonas aeruginosa PAO1
[20] = system: Staphylococcus aureus NCTC 12493
[21] = system: Candida glabrata ATCC 90030
[22] = system: Enterococcus faecalis ATCC 4028
Candida krusei ATCC 6258 = system: Candida krusei ATCC 6258
[23] = system: Enterobacter cloacae ATCC 13047
[24] = system: Staphylococcus epidermidis ATCC 12228
[25] = system: Candida albicans ATCC 90028
[26] = system: Escherichia coli ATCC 25922
Staphylococcus aureus = system: Staphylococcus aureus
Enterococcus faecalis A4 = system: Enterococcus faecalis A4
[27] = system: Enterococcus faecium 5F-10
[28] = system: Enterococcus faecalis 1F-1
[29] = system: Bacillus subtilis ATCC 6051
[30] = system: Bacillus cereus ATCC 14579
[31] = system: Staphylococcus aureus 215
[32] = system: Pseudomonas aeruginosa PA14
Enterococcus faecium = system: Enterococcus faecium
Escherichia coli W3110 = system: Escherichia coli W3110
Escherichia coli NDM = system: Escherichia coli NDM
[33] = system: Acinetobacter baumannii AB5075
[34] = system: Bacillus licheniformis ATCC 14580
[35] = system: Bacillus amyloliquefaciens ATCC 23842
Staphylococcus aureus MR = system: Staphylococcus aureus MR
[36] = system: Pseudomonas aeruginosa CICC 21636
[37] = system: Serratia marcescens ATCC 4112
[38] = system: Salmonella enterica subsp. enterica serovar Paratyphi B CICC 10437
[39] = system: Enterobacter cloacae CICC 21539
[40] = system: Staphylococcus aureus CICC 10384
[41] = system: Escherichia coli CICC 10293
[42] = system: Listeria innocua CICC 10417
[43] = system: Staphylococcus aureus CICC 10306
[44] = system: Bacillus subtilis CICC 10034

## CC[C@H](C)[C@H](NC(=O)[C@H](CO)NC(=O)[C@@H](N)CCCN=C(N)N)C(=O)N[C@H](C(=O)N[C@@H](CCCN=C(N)N)C(=O)N1CCC[C@H]1C(=O)N[C@H](C(=O)N[C@@H](CC(C)C)C(=O)N[C@H](C(=O)N[C@@H](CCCN=C(N)N)C(=O)N[C@@H](CCCN=C(N)N)C(=O)N[C@@H](CCCN=C(N)N)C(=O)N[C@@H](Cc1c[nH]c2ccccc12)C(=O)N[C@@H](CCCN=C(N)N)C(=O)N[C@H](C(=O)N[C@@H](CCCN=C(N)N)C(=O)N1CCC[C@H]1C(=O)N[C@H](C(=O)N[C@@H](Cc1ccccc1)C(=O)O)C(C)C)C(C)C)C(C)C)C(C)C)[C@@H](C)O [RSITRPVLVRRRWRVRPVF]
[1]
  MIC: ≥ 51 µM
[2]
  MIC: ≥ 52.2 µM
[3]
  MIC: ≥ 209 µM
[4]
  MIC: ≥ 52.2 µM
[5]
  MIC: ≥ 104 µM
[6]
  MIC: 26.1 µM (≈ 64 µg/mL)
[7]
  MIC: ≥ 52.2 µM
[8]
  MIC: ≥ 52.2 µM
Escherichia coli K-12
  MIC: ≥ 104 µM
[9]
  MIC: > 52.2 µM
Campylobacter jejuni
  MIC: ≥ 52.2 µM
[10]
  MIC: > 52.2 µM
Escherichia coli
  MIC: > 52.2 µM
[11]
  MIC: ≥ 52.2 µM
[12]
  MIC: ≥ 102 µM
[13]
  MIC: > 52.2 µM
[14]
  MIC: ≥ 209 µM
[15]
  MIC: ≥ 52.2 µM
[16]
  MIC: ≥ 52.2 µM
[17]
  MIC: ≥ 52.2 µM
[18]
  MIC: 26.1 µM (≈ 64 µg/mL)
[19]
  MIC: 209 µM (≈ 512 µg/mL)
[20]
  MIC: ≥ 52.2 µM

## CC[C@H](C)[C@H](NC(=O)[C@H](CC(C)C)NC(=O)CNC(=O)[C@H](CCCCN)NC(=O)[C@@H](NC(=O)[C@H](CC(C)C)NC(=O)[C@H](CCCCN)NC(=O)[C@@H]1CCCN1C(=O)[C@@H](NC(=O)[C@H](CC(C)C)NC(=O)[C@H](CCCCN)NC(=O)[C@H](Cc1ccccc1)NC(=O)[C@@H](N)Cc1ccccc1)[C@@H](C)CC)C(C)C)C(=O)N[C@@H](CO)C(=O)N[C@@H](C)C(=O)N[C@@H](Cc1ccccc1)C(=O)N[C@@H](CCCCN)C(N)=O [FFKLIPKLVKGLISAFK]
[21]
  MIC: 9.38 µM (≈ 18.3 µg/mL)
[22]
  MIC: 1.17 µM (≈ 2.28 µg/mL)
[10]
  MIC: 1.17 µM (≈ 2.28 µg/mL)
Candida krusei ATCC 6258
  MIC: 9.38 µM (≈ 18.3 µg/mL)
[23]
  MIC: 9.38 µM (≈ 18.3 µg/mL)
[13]
  MIC: 2.34 µM (≈ 4.56 µg/mL)
[24]
  MIC: 9.38 µM (≈ 18.3 µg/mL)
[25]
  MIC: 4.69 µM (≈ 9.14 µg/mL)
[26]
  MIC: 2.34 µM (≈ 4.56 µg/mL)

## CC[C@H](C)[C@H](NC(=O)[C@H](CC(C)C)NC(=O)[C@H](CO)NC(=O)[C@@H](NC(=O)[C@H](CCC(N)=O)NC(=O)[C@H](Cc1ccc(O)cc1)NC(=O)[C@H](CCCN=C(N)N)NC(=O)[C@H](CCCN=C(N)N)NC(=O)[C@H](CCCN=C(N)N)NC(=O)[C@@H](NC(=O)[C@H](CO)NC(=O)[C@@H](NC(=O)[C@@H](N)[C@@H](C)O)[C@@H](C)O)[C@@H](C)CC)C(C)C)C(=O)N[C@@H](CCCN=C(N)N)C(=O)N[C@@H](CCCN=C(N)N)C(=O)N[C@@H](Cc1cnc[nH]1)C(=O)N[C@@H](CCCN=C(N)N)C(=O)NCC(=O)N[C@@H](CCCCN)C(=O)N[C@@H](CCCN=C(N)N)C(=O)O [TTSIRRRYQVSLIRRHRGKR]
Staphylococcus aureus
  MIC: 6.3 µM (≈ 16 µg/mL)
Enterococcus faecalis A4
  MIC: 3.15 µM (≈ 8 µg/mL)
[27]
  MIC: 1.57 µM (≈ 4 µg/mL)
[28]
  MIC: 3.15 µM (≈ 8 µg/mL)
[29]
  MIC: 25.2 µM (≈ 64 µg/mL)
[30]
  MIC: 25.2 µM (≈ 64 µg/mL)
[31]
  MIC: 12.6 µM (≈ 32 µg/mL)
[32]
  MIC: 16 µM (≈ 40.6 µg/mL)
Enterococcus faecium
  MIC: 3.15 µM (≈ 8 µg/mL)
Escherichia coli W3110
  MIC: 16 µM (≈ 40.6 µg/mL)
Escherichia coli NDM
  MIC: ≥ 32 µM
[13]
  MIC: 25.2 µM (≈ 64 µg/mL)
[33]
  MIC: 1 µM (≈ 2.54 µg/mL)
[34]
  MIC: 25.2 µM (≈ 64 µg/mL)
[35]
  MIC: 25.2 µM (≈ 64 µg/mL)
Staphylococcus aureus MR
  MIC: 25.2 µM (≈ 64 µg/mL)

## CSCC[C@H](NC(=O)[C@@H](NC(=O)[C@@H](N)CCCN=C(N)N)C(C)C)C(=O)N[C@@H](Cc1ccccc1)C(=O)N[C@@H](CCCCN)C(=O)N[C@@H](Cc1c[nH]c2ccccc12)C(=O)N[C@@H](C)C(=O)O [RVMFKWA]
[36]
  MIC: ≥ 34.1 µM
[37]
  MIC: ≥ 34.1 µM
[38]
  MIC: ≥ 34.1 µM
[39]
  MIC: ≥ 34.1 µM
[40]
  MIC: 8.54 µM (≈ 8 µg/mL)
[41]
  MIC: 17.1 µM (≈ 16 µg/mL)
[42]
  MIC: 8.54 µM (≈ 8 µg/mL)
[43]
  MIC: 8.54 µM (≈ 8 µg/mL)
[44]
  MIC: ≥ 34.1 µM
